Measurements: patent US11364264B2, “Ex vivo antigen-presenting cells or activated CD-positive T cells for treatment of cancer” (priority 2016, dated 2022)
Like-named read-outs stand apart in the source and are kept apart here.

Assays:
[1] = system: AE17 mouse mesothelioma cell line; test: AE17 intraperitoneal malignant mesothelioma model: tumor weight and survival (Example 5); format: in vivo; conditions: VIC-008 20 μg per mouse, AMD3100 1 mg/kg i.p. weekly x4
[2] = system: AE17 mouse mesothelioma cell line; test: Ex vivo restimulation with recombinant mesothelin, intracellular IFN-γ in CD8+ T cells, AE17 mice; conditions: restimulated with recombinant mesothelin ex vivo
[3] = system: 40L mouse mesothelioma cell line; test: Ex vivo restimulation with recombinant mesothelin, intracellular IFN-γ in CD8+ T cells, 40L mice; conditions: splenic CD8+ T cells, restimulated with recombinant mesothelin ex vivo
[4] = system: 40L mouse mesothelioma cell line; test: 40L intraperitoneal malignant mesothelioma model: tumor weight and survival (Example 5); format: in vivo; conditions: VIC-008 20 μg per mouse, AMD3100 1 mg/kg i.p. weekly x4
[5] = system: 40L mouse mesothelioma cell line; test: Immune profiling by flow cytometry of tissues from 40L tumor-bearing mice; format: in vivo; conditions: for Proportion of CD8+ T cells in total live cells compared to saline: one week after last treatment
[6] = system: Luc-40L mesothelioma cancer cells; test: Luc-40L mesothelioma model, survival (Example 4); format: in vivo, mouse; conditions: VIC-008 20 μg and/or AMD3100 1 μg/g body weight once a week for four weeks
[7] = system: AE17 mouse mesothelioma cell line; format: in vivo; conditions: for Proportion of CD8+ T cells in total live cells compared to saline: one week after last treatment
[8] = system: GFP-Foxp3 expressing CD4+ splenocytes (Treg cells); conditions: AMD3100 5 μg/ml, 24 hours
[9] = system: Luc-AE17 mesothelioma cancer cells; test: Luc-AE17 mesothelioma model, survival (Example 4); format: in vivo, mouse; conditions: VIC-008 20 μg and/or AMD3100 1 μg/g body weight once a week for four weeks

For `c1cc(CN2CCCNCCNCCCNCC2)ccc1CN1CCCNCCNCCCNCC1` [AMD3100], the “Animal survival compared to saline” value [1] was “only modest benefit to survival”, the “Mesothelin-specific IFN-γ expression in CD8+ T cells compared to saline” value ([2]; lymph node CD8+ T cells) was “did not enhance” and the “Mesothelin-specific IFN-γ expression in CD8+ T cells compared to saline” value ([2]; splenic CD8+ T cells) was “did not enhance”. The “Mesothelin-specific IFN-γ expression in CD8+ T cells compared to saline” value [3] was “did not enhance”, the “Animal survival compared to saline” value [4] was “only modest benefit to survival” and the “Proportion of PD-1-expressing CD8+ T cells compared to saline” value ([5]; spleens) was “significantly fewer”. For the same molecule, the “Proportions of Treg cells” value ([5]; spleens) was “did not alter”, the “Proportion of CD8+ T cells in total live cells compared to saline” value ([5]; spleens) was “did not increase” and the “IL-2+ CD40L+ cells among the Foxp3+ CD25− Treg population” value ([5]; tumors) was “significantly more cells”. The “Proportion of PD-1-expressing CD8+ T cells compared to saline” value ([5]; tumors) was “significantly fewer”, the “Proportions of Treg in tumors compared to saline” value ([5]; tumors) was “significantly decreased” and the “Ratio of CD8+ T cells to Treg in tumors compared to saline” value ([5]; tumors) was “increased”. The “Ratio of CD25− cells to CD25+ cells within the Foxp3+ population” value ([5]; tumors) was “significantly increased”, the “Proportion of CD8+ T cells in total live cells compared to saline” value ([5]; tumors) was “did not increase” and the “Survival of tumor-bearing mice compared to saline” value [6] was “slight effect on survival”. The “Cell ratio of CD8+ T cells to Treg cells compared to saline” value ([7]; lymph nodes) was “significantly increased”, the “IL-2+ CD40L+ cells among the Foxp3+ CD25− Treg population” value ([7]; lymph nodes) was “significantly more cells” and the “Proportion of PD-1-expressing CD8+ T cells compared to saline” value ([7]; lymph nodes) was “significantly fewer”. The “Ratio of CD25− cells to CD25+ cells within the Foxp3+ population” value ([7]; lymph nodes) was “significantly increased”, the “Treg in the lymph nodes” value ([7]; lymph nodes) was “generally reduced” and the “Proportion of CD8+ T cells in total live cells compared to saline” value ([7]; lymph nodes) was “did not increase”. The “Proportion of PD-1-expressing CD8+ T cells compared to saline” value ([7]; spleens) was “significantly fewer”, the “Proportion of CD8+ T cells in total live cells compared to saline” value ([7]; spleens) was “did not increase” and the “Proportion of PD-1-expressing CD8+ T cells compared to saline” value ([7]; tumors) was “significantly fewer”. The “Proportions of Treg in tumors compared to saline” value ([7]; tumors) was “significantly decreased”, the “Ratio of CD8+ T cells to Treg in tumors compared to saline” value ([7]; tumors) was “increased” and the “Proportion of CD8+ T cells in total live cells compared to saline” value ([7]; tumors) was “did not increase”. For the same molecule, the “Ratio of the proportion of CD25− cells to CD25+ cells in the Foxp3+ CD4+ population” value ([8]; no anti-CD3/CD28 stimulation) was “did not change”, the “Conversion of Foxp3+ CD25− Treg into IL-2+ CD40L+ cells” value ([8]; with anti-CD3/CD28 antibodies (1 μg/ml), P=0.0015) was “converted more” and the “Ratio of the proportion of CD25− cells to CD25+ cells in the Foxp3+ CD4+ population” value ([8]; with anti-CD3/CD28 antibodies (1 μg/ml), P=0.0017) was “significantly increased”. The “Survival of tumor-bearing mice compared to saline” value [9] was “slight effect on survival”.
